System: E. coli-based CFPS of GFP
Assay: Cell-free protein synthesis (CFPS) of model protein GFP in presence of additives
Type: biochemical
Method: CFPS reactions took place in a 96-well plate at 37° C. for 2 hours. PANOxSP was used as an energy source (25% reaction volume of the cell extract, 1.2 nM plasmid, 12 to 15 mM magnesium glutamate, 1 mM 1,4-diaminobutane, 1.5 mM Spermidine, 33.3 mM phosphoenolpyruvate, 10 mM ammonium glutamate, 175 mM potassium glutamate, 2.7 mM potassium oxalate, 0.33 mM nicotinamide adenine dinucleotide, 0.27 mM coenzyme A, 1.2 mM ATP, 0.86 mM CTP, 0.86 mM GTP, 0.86 mM UTP, 0.17 mM folinic acid, 2 mM of all canonical amino acids with the exception of glutamic acid^81. Expressed protein was quantified by addition of 5 μM radiolabeled (U-14C) leucine (PerkinElmer, Waltham, Mass.) to the CFPS reaction. Varying concentrations (0 to 200 μM) of ligands were added to the CFPS reaction. In case of human sample testing, 20% and 10% of whole blood and urine (v/v), respectively were added to the CFPS in addition to the EDC ligands.
Initially, we hypothesized that urea is the main component to hinder protein synthesis in urine samples. The urea concentration in human samples is in a range of 0.1 to 0.8 M^88-89 with the average being 0.22 M^90. To understand the effect of urea on CFPS, we synthesized the model protein GFP in the presence of urea at concentrations between 0.001 to 1 M (FIG. 23). […] Error bars represent one standard deviation for n=3. […] Even reactions with 0.5 M urea retained 40% protein synthesis capability.
We next hypothesized that RNase activity hinders protein synthesis in both urine and blood samples^91,92,93. To test this hypothesis, we performed CFPS of GFP in the presence of urine and blood, and added murine RNase inhibitor as shown in FIGS. 24A and 24B. FIGS. 24A and 24B show the effect of RNase inhibitor on CFPS of GFP in the presence of urine (top) and blood (bottom). The lighter bars in both graphs represent the improvements in protein production in the presence of urine or blood with the addition of RNase inhibitor. The error bars represent one standard deviation for n=3. […] For instance, for 20% by volume urine sample, the GFP production yield increased from less than 10% to more than 30%. The improvement was more significant for blood samples, as 10% by volume blood eliminated protein synthesis, but even 45% by volume blood in CFPS containing RNase inhibitor retained 50% protein synthesis yield. […] Adding RNase inhibitors to CFPS reactions facilitates synthesis of sufficient biosensor protein to detect ligands in up to 25% and 45% by volume urine and blood, respectively. These higher volume percentages help to detect lower concentrations of ligands in the samples.

NC(N)=O [urea]
effect on CFPS performance (0.1 M urea): doesn't have a significant effect | retained protein synthesis capability (0.5 M urea): 40%

B1: RNase inhibitor: murine RNAse inhibitor purchased from New England Biolabs, added to CFPS reactions (protein, UniProt Q91VI7 1-456, looked up)
Ribonuclease inhibitor: MSLDIQCEQLSDARWTELLPLIQQYEVVRLDDCGLTEVRCKDISSAVQANPALTELSLRTNELGDGGVGLVLQGLQNPTCKIQKLSLQNCGLTEAGCGILPGMLRSLSTLRELHLNDNPMGDAGLKLLCEGLQDPQCRLEKLQLEYCNLTATSCEPLASVLRVKADFKELVLSNNDLHEPGVRILCQGLKDSACQLESLKLENCGITAANCKDLCDVVASKASLQELDLSSNKLGNAGIAALCPGLLLPSCKLRTLWLWECDITAEGCKDLCRVLRAKQSLKELSLASNELKDEGARLLCESLLEPGCQLESLWIKTCSLTAASCPYFCSVLTKSRSLLELQMSSNPLGDEGVQELCKALSQPDTVLRELWLGDCDVTNSGCSSLANVLLANRSLRELDLSNNCMGGPGVLQLLESLKQPSCTLQQLVLYDIYWTNEVEEQLRALEEERPSLRIIS
GFP production yield (20% by volume urine, with RNase inhibitor (less than 10% without)): more than 30% | retained protein synthesis yield (45% by volume blood, with RNase inhibitor): 50%

— US20180136197A1, “CELL-FREE METHODS OF DETECTING BIOACTIVE LIGANDS” (Brigham Young University, priority 2016, published 2018)
